This assay relates to Trypanosoma brucei rhodesiense STIB900. The assay is described as follows: Activity against Trypanosoma brucei rhodesiense STIB900 (Alamar Blue assay). The note with it: Trypanosoma brucei, 70 h, bloodstream forms of T. b. rhodesiense STIB 900, 70 h incubation. It counts as cell-based. How it is done: Activity Against Trypanosoma brucei Rhodesiense STIB900
This stock was isolated in 1982 from a human patient in Tanzania and after several mouse passages cloned and adapted to axenic culture conditions (Baltz, T., D. Baltz, C. Giroud, and J. Crockett. 1985, Cultivation in a semi-defined medium of animal infective forms of Trypanosoma brucei, T. equiperdum, T. evansi, T. rhodesiense and T. gambiense. EMBO Journal 4:1273-1277). Minimum Essential Medium (50 μl) supplemented with 25 mM HEPES, 1 g/l additional glucose, 1% MEM non-essential amino acids (100×), 0.2 mM 2-mercaptoethanol, 1 mM Na-pyruvate and 15% heat inactivated horse serum was added to each well of a 96-well microtiter plate. Serial drug dilutions of eleven 3-fold dilution steps covering a range from […] were prepared. Then 4×10^3 bloodstream forms of T. b. rhodesiense STIB 900 in 50 μl was added to each well and the plate incubated at 37° C. under a 5% CO2 atmosphere for 70 h. 10 μl Alamar Blue (resazurin, 12.5 mg in 100 ml double-distilled water) was then added to each well and incubation continued for a further 2-4 h (Räz, B., M. Iten, Y. Grether-Buhler, R. Kaminsky, and R. Brun. 1997, The Alamar Blue assay to determine drug sensitivity of African trypanosomes (T.b. rhodesiense and T.b. gambiense) in vitro. Acta Trop 68:139-47). Then the plates were read with a Spectramax Gemini XS microplate fluorometer (Molecular Devices Cooperation, Sunnyvale, Calif., USA) using an excitation wave length of 536 nm and an emission wave length of 588 nm. The IC50 values were calculated by linear regression (Huber, W. Koella, J. C. 1993, A comparison of the three methods of estimating EC50 in studies of drug resistance of malaria parasites. Acta Trop. 55, 257-261) from the sigmoidal dose inhibition curves using SoftmaxPro software (Molecular Devices Cooperation, Sunnyvale, Calif., USA). Melarsoprol is used as control.
`N#CC1(NC(=O)[C@H](Cc2cccc(Cl)c2)NC(=O)c2cnn(-c3ccc(F)cc3)n2)CC1` [Example 25, N-[(2S)-3-(3-chlorophenyl)-1-[(1-cyanocyclopropyl)amino]-1-oxopropan-2-yl]-2-(4-fluorophenyl)triazole-4-carboxamide]: the IC50 (usually the concentration that gives 50% inhibition) came to 1.33 µM.

On to `N#CC1(NC(=O)[C@H](Cc2ccc(OC(F)(F)F)c(Cl)c2)NC(=O)c2cnn(-c3cccnc3)n2)CC1` [Example 26, N-[(2S)-3-[3-chloro-4-(trifluoromethoxy)phenyl]-1-[(1-cyanocyclopropyl)amino]-1-oxopropan-2-yl]-2-pyridin-3-yltriazole-4-carboxamide], for which the IC50 was determined as 0.001 µM.

Compound `N#CC1(NC(=O)[C@H](Cc2ccccc2)NC(=O)c2cnn(-c3ccc(F)cc3)n2)CC1` [Example 27, N-[(2S)-1-[(1-cyanocyclopropyl)amino]-1-oxo-3-phenylpropan-2-yl]-2-(4-fluorophenyl)triazole-4-carboxamide] yielded an IC50 of 0.516 µM.

`N#CC1(NC(=O)[C@H](Cc2ccc(OCC3CC3)c(Cl)c2)NC(=O)c2cnn(-c3ccc(F)cc3)n2)CC1` [Example 28, N-[(2S)-3-[3-chloro-4-(cyclopropylmethoxy)phenyl]-1-[(1-cyanocyclopropyl)amino]-1-oxopropan-2-yl]-2-(4-fluorophenyl)triazole-4-carboxamide] yielded an IC50 of 0.19 µM.

Turning to `N#CC1(NC(=O)[C@H](Cc2ccc(Cl)c(Cl)c2)NC(=O)c2cnn(-c3ccc(F)cc3)n2)CC1` [Example 29, N-[(2S)-1-[(1-cyanocyclopropyl)amino]-3-(3,4-dichlorophenyl)-1-oxopropan-2-yl]-2-(4-fluorophenyl)triazole-4-carboxamide], the IC50 was determined as 0.007 µM.

As to `N#CC1(NC(=O)[C@H](Cc2ccc(OC(F)(F)F)c(Cl)c2)NC(=O)c2cnn(-c3ccc(F)nc3)n2)CC1` [Example 30, N-[(2S)-3-[3-chloro-4-(trifluoromethoxy)phenyl]-1-[(1-cyanocyclopropyl)amino]-1-oxopropan-2-yl]-2-(6-fluoropyridin-3-yl)triazole-4-carboxamide], the IC50 came out at 0.005 µM.

`N#CC1(NC(=O)[C@H](Cc2ccc(OCc3ccccc3)cc2)NC(=O)c2cnn(-c3ccc(F)cc3)n2)CC1` [Example 31, N-[(2S)-1-[(1-cyanocyclopropyl)amino]-1-oxo-3-(4-phenylmethoxyphenyl)propan-2-yl]-2-(4-fluorophenyl)triazole-4-carboxamide] displayed an IC50 of 0.019 µM.

Compound `CC(C)C[C@H](NC(=O)c1cnn(-c2ccc(F)cc2)n1)C(=O)NC1(C#N)CC1` [Example 32, N-[(2S)-1-[(1-cyanocyclopropyl)amino]-4-methyl-1-oxopentan-2-yl]-2-(4-fluorophenyl)triazole-4-carboxamide] yielded an IC50 of 2.23 µM.

Consider `CC(C)n1ncc(C(=O)N[C@@H](Cc2ccc(OC(F)(F)F)c(Cl)c2)C(=O)NC2(C#N)CC2)n1` [Example 33, N-[(2S)-3-[3-chloro-4-(trifluoromethoxy)phenyl]-1-[(1-cyanocyclopropyl)amino]-1-oxopropan-2-yl]-2-propan-2-yltriazole-4-carboxamide], for which inhibition was half-maximal at 0.004 µM (IC50).

As for `Cn1ncc(C(=O)N[C@@H](Cc2ccc(OC(F)(F)F)c(Cl)c2)C(=O)NC2(C#N)CC2)n1` [Example 34, N-[(2S)-3-[3-chloro-4-(trifluoromethoxy)phenyl]-1-[(1-cyanocyclopropyl)amino]-1-oxopropan-2-yl]-2-methyltriazole-4-carboxamide], the IC50 was determined as 0.04 µM.

`N#CC1(NC(=O)[C@H](Cc2ccc(OC(F)(F)F)c(Cl)c2)NC(=O)c2cnn(-c3ccc(Br)cc3)n2)CC1` [Example 35, 2-(4-bromophenyl)-N-[(2S)-3-[3-chloro-4-(trifluoromethoxy)phenyl]-1-[(1-cyanocyclopropyl)amino]-1-oxopropan-2-yl]triazole-4-carboxamide]: the IC50 worked out at 0.028 µM.

Regarding `COCCOc1ccc(C[C@H](NC(=O)c2cnn(-c3ccc(F)cc3)n2)C(=O)NC2(C#N)CC2)cc1Cl` [Example 36, N-[(2S)-3-[3-chloro-4-(2-methoxyethoxy)phenyl]-1-[(1-cyanocyclopropyl)amino]-1-oxopropan-2-yl]-2-(4-fluorophenyl)triazole-4-carboxamide], it took 0.065 µM to reach half-maximal inhibition (IC50).

Take `CC(C)(C)n1ncc(C(=O)N[C@@H](Cc2ccc(OC(F)(F)F)c(Cl)c2)C(=O)NC2(C#N)CC2)n1` [Example 37, 2-tert-butyl-N-[(2S)-3-[3-chloro-4-(trifluoromethoxy)phenyl]-1-[(1-cyanocyclopropyl)amino]-1-oxopropan-2-yl]triazole-4-carboxamide]: the IC50 was determined as 0.004 µM.

Source of the values: patent publication US10377719B2, “Trypanosomes inhibitors” (Hoffmann-La Roche Inc., priority 2015, dated 2019).
